The values below come from US9382208B1, “Negative allosteric modulators of metabotropic glutamate receptor 2” (Vanderbilt University, priority 2015, dated 2016).

Read-outs that look alike come from different tables or passages of the source.

In experiment [1] the test system is group II mGlu receptors (mGlu2 and mGlu3). The conditions noted are these: cited from earlier work.
The target in another experiment is T1, rat mGlu2 (Rattus norvegicus, UniProt P31421).
T1 construct: expressed in transfected cells
Briefly: mGlu2 Ca2+ flux assay. Format: cell-based. The conditions noted are these: for remaining activity at 30 µM: amplitude of response in the presence of 30 μM test compound as percentage of maximal response to glutamate, read-out: rat mGlu2 Glu max (%). In a few lines:
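Gα15 HEK293 cells stably expressing rat mGlu2, Fluo-4 loaded; compound added, then glutamate at EC20 after 2.3 min and EC80 afterward, calcium flux read as F/F0. Peak amplitude around EC80 addition normalized to glutamate max; IC50 by unconstrained 4-parameter fit, top concentration 30 μM.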
In general terms: A change in cytosolic calcium serves as a functional read-out for many receptors and channels.

The subject of the next experiment is mouse. The conditions noted are these: mouse TST, normal animals; cited from earlier work.
The test system of experiment [2] is Aβ-induced neurodegeneration. To be noted: cited from earlier work.
The next experiment deals with Helpless (H) mice. The conditions noted are these: cited from earlier work; for activity in the tail suspension test: Helpless (H) mice.
A further experiment relates to mice. To be noted: cited from earlier work.
The next experiment concerns rat. The conditions noted are these: rat FST, normal animals; cited from earlier work.
A further experiment relates to C57B16/J mice. To be noted: FST; cited from earlier work.
The subject of experiment [3] is central mGlu2 and mGlu3 receptors. The conditions noted are these: in vivo; cited from earlier work.
The conditions of experiment [4]: CFS model; cited from earlier work.
The test system of experiment [5] is olfactory bulbectomized rats. The conditions noted are these: repeated administration for 14 days; cited from earlier work.
Experiment [6] has as its system social isolation-reared mice. To be noted: cited from earlier work.
The conditions of experiment [7]: treatment for 7 days; cited from earlier work.
[8] abbreviates: Gα15 HEK293 cells stably expressing rat mGlu2, glutamate EC80 addition, read-out: rat mGlu2 IC50.

T1 sequence (P31421 19-872): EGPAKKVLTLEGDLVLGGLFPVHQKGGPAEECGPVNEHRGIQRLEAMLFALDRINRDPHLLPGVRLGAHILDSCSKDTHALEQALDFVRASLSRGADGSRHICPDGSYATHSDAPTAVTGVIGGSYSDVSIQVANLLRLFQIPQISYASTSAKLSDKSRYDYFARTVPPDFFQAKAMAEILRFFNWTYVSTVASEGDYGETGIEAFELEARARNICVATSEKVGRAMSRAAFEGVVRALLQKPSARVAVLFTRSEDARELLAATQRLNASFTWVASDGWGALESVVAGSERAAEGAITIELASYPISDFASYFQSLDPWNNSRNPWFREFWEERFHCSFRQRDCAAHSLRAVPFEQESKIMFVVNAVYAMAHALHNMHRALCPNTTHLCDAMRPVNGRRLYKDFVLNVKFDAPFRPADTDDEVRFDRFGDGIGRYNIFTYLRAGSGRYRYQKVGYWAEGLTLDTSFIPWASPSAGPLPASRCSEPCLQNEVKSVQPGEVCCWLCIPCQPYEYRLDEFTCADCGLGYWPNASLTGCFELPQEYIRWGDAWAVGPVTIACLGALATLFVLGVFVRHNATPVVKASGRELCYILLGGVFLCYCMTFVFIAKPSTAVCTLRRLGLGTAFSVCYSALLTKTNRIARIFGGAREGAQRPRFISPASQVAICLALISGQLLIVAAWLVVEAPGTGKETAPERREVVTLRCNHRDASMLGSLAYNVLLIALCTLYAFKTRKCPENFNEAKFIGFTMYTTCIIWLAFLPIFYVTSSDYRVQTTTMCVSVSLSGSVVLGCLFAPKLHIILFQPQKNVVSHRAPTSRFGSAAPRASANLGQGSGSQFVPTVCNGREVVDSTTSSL

Take `CCCCCCCOC(=O)[C@@]1(F)[C@@H]2C[C@@H](OCc3ccc(Cl)c(Cl)c3)[C@@](N)(C(=O)O)[C@@H]21` [BCI-838]: the “levels of monomeric and oAβ peptides in the hippocampus and cortex” value in experiment [1] (three months of treatment, two AD mouse models) is reported as “decreased”. Besides, in [1] (three months of treatment), the “Dutch APP transgene-associated learning and memory impairment” value is reported as “reversed”; the anxiolytic effects entry is recorded as “anxiolytic effects”. Besides, in experiment [1] (wild-type and Alzheimer's diseased mice, 3 months), the “hippocampal progenitor cell proliferation” value is listed as “stimulated”.

What is called IC50 is the point on the concentration scale where inhibition reaches its midpoint. In the case of `CN(Cc1cc(F)c2c(c1)c(=O)c(C(N)=O)cn2-c1ccc(F)cc1)C1CC(F)(F)C1` [Compound 91, 6-(((3,3-difluorocyclobutyl)(methyl)amino)methyl)-8-fluoro-1-(4-fluorophenyl)-4-oxo-1,4-dihydroquinoline-3-carboxamide], at rat mGlu2 (setting [8]), the IC50 was over 30 µM.

On to `C[C@@H]1CN(Cc2cc(F)c3c(c2)c(=O)c(C(N)=O)cn3-c2ccc(F)cc2)C[C@H](C)O1` [Compound 92, 6-((cis-2,6-dimethylmorpholino)methyl)-8-fluoro-1-(4-fluorophenyl)-4-oxo-1,4-dihydroquinoline-3-carboxamide], for which the IC50 at rat mGlu2 (setting [8]) was 4.41 µM. Also, the remaining activity at 30 µM at rat mGlu2 turned out to be 2.23%.

On to `CC1CN(Cc2cc(F)c3c(c2)c(=O)c(C(N)=O)cn3-c2ccc(F)cc2)CCO1` (centres unmarked) [Compound 93, 8-fluoro-1-(4-fluorophenyl)-6-((2-methylmorpholino)methyl)-4-oxo-1,4-dihydroquinoline-3-carboxamide], for which the IC50 on rat mGlu2 (setting [8]) was 6.52 µM. Besides, the remaining activity at 30 µM on rat mGlu2 came to 0.14%.

Take `NC(=O)c1cn(-c2ccc(F)cc2)c2c(F)cc(CN3CCC(F)(F)CC3)cc2c1=O` [Compound 94, 6-((4,4-difluoropiperidin-1-yl)methyl)-8-fluoro-1-(4-fluorophenyl)-4-oxo-1,4-dihydroquinoline-3-carboxamide]: the IC50 on rat mGlu2 (setting [8]) turned out to be 1.77 µM. Further, the remaining activity at 30 µM on rat mGlu2 came to 5.78%.

On to `NC(=O)c1cn(-c2ccc(F)cc2)c2c(F)cc(CN3CCC(F)(F)C3)cc2c1=O` [Compound 95, 6-((3,3-difluoropyrrolidin-1-yl)methyl)-8-fluoro-1-(4-fluorophenyl)-4-oxo-1,4-dihydroquinoline-3-carboxamide], for which the IC50 at rat mGlu2 (setting [8]) was over 10 µM. For the same compound, the remaining activity at 30 µM on rat mGlu2 was 31.1%.

As to `CN(Cc1cccnc1)c1ccc2c(c1)c(=O)c(C#N)cn2-c1ccc(F)cc1` [Compound 96, 1-(4-Fluorophenyl)-6-(methyl(pyridin-3-ylmethyl)amino)-4-oxo-1,4-dihydroquinoline-3-carbonitrile], on rat mGlu2, half-maximal inhibition (IC50) was put at 3.16 µM and the remaining activity at 30 µM worked out at 3.44%.

Regarding `N[C@](CC1c2ccccc2Oc2ccccc21)(C(=O)O)[C@H]1C[C@@H]1C(=O)O` [LY341495], the antidepressant-like effects result in the experiment with mouse and in the experiment on rat was “Antidepressant-like effects” each time. The Aβ-induced neurodegeneration entry in [2] was “prevented”. In addition, the “activity in the tail suspension test” value in the experiment with Helpless (H) mice is given as “active”. The “antidepressant effect in helpless mice” value in the experiment with Helpless (H) mice (acute administration) was “potent antidepressant effect”. The marble-burying behavior result in the experiment on mice was “significantly reduce marble-burying behavior”. For the same compound, the immobility time entry in the experiment on C57B16/J mice is given as “dose-dependently reduced”. For the same compound, the “hypolocomotor effect of mGlu2/3 agonist (LY379268)” value in [3] is “achieved the same result”.

For `CCS(=O)(=O)N(Cc1cccnc1)c1cccc(-c2ccc(C#N)cc2)c1` [LY566332], the Aβ-induced neurodegeneration result in experiment [2] was “amplified”.

For `N[C@]1(C(=O)O)[C@H]2[C@@H](C[C@H]1OCc1ccc(Cl)c(Cl)c1)[C@]2(F)C(=O)O` [MGS0039], the freezing behavior result in experiment [4] was “significantly decreased”. In addition, in the experiment with mouse, the antidepressant-like effects entry is “Antidepressant-like effects”. Also, in the experiment with mice, the marble-burying behavior result is “reduced marble-burying behavior” and the spontaneous locomotor activity result was “no significant change”. For the same compound, in [5], the “hyperactivity in the open field test” value is given as “attenuated the hyperactivity” and the “learning deficit in the passive avoidance test” value is on record as “attenuated the learning deficit”. Further, the “immobility in the FST” value in [6] is reported as “reversed the increased immobility”. Also, the antidepressant-like effects entry in the experiment with rat is reported as “Antidepressant-like effects”. The “number of escape failures” value in [7] is on record as “significantly reduced”.

For the compound `Cc1cc(-c2cccc(C3=Nc4cc(C)c(C(F)(F)F)cc4NC(=O)C3)c2)cc(C)n1` [RO4491533], in the experiment on Helpless (H) mice, the “activity in the tail suspension test” value is listed as “active”. Besides, in the experiment with C57B16/J mice, the immobility time entry was “dose-dependently reduced”. Besides, the “hypolocomotor effect of mGlu2/3 agonist (LY379268)” value in experiment [3] is “reversed the hypolocomotor effect”.

Regarding `CN1C(=O)CN=C(c2ccccc2)c2cc(Cl)ccc21` [diazepam], in experiment [4], the freezing behavior entry is reported as “significantly decreased”.

For the compound `CNCCC(Oc1ccc(C(F)(F)F)cc1)c1ccccc1` (centres unmarked) [fluoxetine], the “antidepressant effect in helpless mice” value with Helpless (H) mice (chronic (21 days) treatment) is on record as “full antidepressant effect”.
